Measurements reported in ChEMBL document CHEMBL3804761, “Synthesis of a stable and orally bioavailable englerin analogue” (Bioorg Med Chem Lett, 2016).
Activity calls are given as the source filed them. No cut-off for these calls is given here.

Target: Protein kinase C (PKC) (Homo sapiens) (UniProt O94806+P41743+P17252+P05129+Q05655+P05771+Q05513+Q02156+P24723+Q15139+Q04759)
Experiment: Activation of PKC in human 786-0 cells at 1 uM
Format: cell-based

| Activity | SMILES |
| --- | --- |
| Active | CC(C)[C@@]12C[C@@H](OC(=O)CO)[C@@](C)(O1)[C@@H]1CC[C@@H](C)[C@H]1[C@@H]2OC(=O)/C(Cl)=C/c1ccccc1 |
| Active | CC/C(C)=C/C(=O)O[C@@H]1[C@H](C)C[C@H]2O[C@]1(O)[C@@H](O)[C@@]1(C)CC[C@H](O1)C(C)(C)/C=C/[C@H](C)C2=O |
